Reference: ChEMBL document CHEMBL2086309, “Discovery of liver selective non-steroidal glucocorticoid receptor antagonist as novel antidiabetic agents” (Bioorg Med Chem Lett, 2012)

Tests used:
[1] = biological target: T1, Glucocorticoid receptor (Rattus norvegicus, UniProt P06536); experiment: Antagonist activity at glucocorticoid receptor in rat hepatocytes assessed as inhibition of dexamethasone-induced […] expression incubated for 30 mins prior to dexamethasone-induction measured after 4 hrs by reporter gene assay; assay type: functional, cell-based, Hepatocyte
T1 sequence (P06536 whole entry): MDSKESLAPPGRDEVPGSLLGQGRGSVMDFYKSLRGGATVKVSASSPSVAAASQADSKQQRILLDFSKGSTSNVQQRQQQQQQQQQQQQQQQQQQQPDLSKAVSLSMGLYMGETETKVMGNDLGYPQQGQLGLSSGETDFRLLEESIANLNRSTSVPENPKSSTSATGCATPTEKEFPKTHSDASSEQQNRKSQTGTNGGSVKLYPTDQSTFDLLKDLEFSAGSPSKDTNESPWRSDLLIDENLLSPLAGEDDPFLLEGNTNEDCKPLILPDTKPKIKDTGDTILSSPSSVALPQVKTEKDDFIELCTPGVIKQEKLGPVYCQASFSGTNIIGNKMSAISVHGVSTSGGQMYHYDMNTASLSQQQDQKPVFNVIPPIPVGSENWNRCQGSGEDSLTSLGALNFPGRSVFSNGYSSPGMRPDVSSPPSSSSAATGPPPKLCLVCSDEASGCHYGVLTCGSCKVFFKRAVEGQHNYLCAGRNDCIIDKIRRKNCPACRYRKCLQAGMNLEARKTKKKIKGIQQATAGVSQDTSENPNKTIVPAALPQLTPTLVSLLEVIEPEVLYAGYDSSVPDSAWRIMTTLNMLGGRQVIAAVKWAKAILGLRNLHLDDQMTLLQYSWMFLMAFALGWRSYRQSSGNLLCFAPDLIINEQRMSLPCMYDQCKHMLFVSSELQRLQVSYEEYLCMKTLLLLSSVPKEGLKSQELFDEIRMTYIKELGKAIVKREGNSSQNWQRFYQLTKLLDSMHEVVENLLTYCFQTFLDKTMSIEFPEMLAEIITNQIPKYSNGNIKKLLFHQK

[2] = biological target: T2, Glucocorticoid receptor (Homo sapiens, UniProt P04150); experiment: Antagonist activity at human glucocorticoid receptor expressed in GRAF cells assessed as inhibition of dexamethasone-induced alkaline phosphatase expression after 48 hrs by reporter gene assay; assay type: functional, cell-based
T2 sequence (P04150 whole entry): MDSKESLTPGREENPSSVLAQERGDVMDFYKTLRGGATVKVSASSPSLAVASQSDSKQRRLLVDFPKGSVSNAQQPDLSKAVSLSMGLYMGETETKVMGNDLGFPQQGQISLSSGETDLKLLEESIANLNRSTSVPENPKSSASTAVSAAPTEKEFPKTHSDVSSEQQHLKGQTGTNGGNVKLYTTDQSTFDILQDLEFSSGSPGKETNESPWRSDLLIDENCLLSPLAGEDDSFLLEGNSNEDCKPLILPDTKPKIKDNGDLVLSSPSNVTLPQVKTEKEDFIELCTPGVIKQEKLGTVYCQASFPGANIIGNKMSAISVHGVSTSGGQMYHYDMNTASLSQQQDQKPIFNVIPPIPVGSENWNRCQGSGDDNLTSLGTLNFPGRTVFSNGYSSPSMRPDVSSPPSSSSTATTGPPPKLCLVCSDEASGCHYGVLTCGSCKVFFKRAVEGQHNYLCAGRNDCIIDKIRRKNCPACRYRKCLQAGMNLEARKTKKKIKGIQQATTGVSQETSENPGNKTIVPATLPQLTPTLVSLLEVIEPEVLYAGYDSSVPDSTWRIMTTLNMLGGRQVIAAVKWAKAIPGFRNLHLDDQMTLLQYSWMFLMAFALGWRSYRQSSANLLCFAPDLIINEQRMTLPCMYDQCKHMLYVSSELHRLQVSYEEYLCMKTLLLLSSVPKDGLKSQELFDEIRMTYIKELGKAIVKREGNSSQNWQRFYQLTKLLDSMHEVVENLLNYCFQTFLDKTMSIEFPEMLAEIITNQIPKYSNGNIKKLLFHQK

[3] = biological target: T2, Glucocorticoid receptor; experiment: Displacement of [3H]dexamethasone from human glucocorticoid receptor expressed in baculovirus infected Sf9 cells after overnight incubation by scintillation counting

SMILES	IC50 [1] [nM]	IC50 [2] [nM]	IC50 [3] [nM]
O=C(O)Cc1cc(Br)c(N(Cc2ccc(Oc3ccc(C(F)(F)F)cc3C(F)(F)F)cc2)Cc2cc(F)cc(F)c2)c(Br)c1	2900	421	111
O=C(O)Cc1cc(Br)c(N(Cc2ccc(Oc3ccccc3F)cc2)Cc2cc(F)cc(F)c2)c(Br)c1	2100	46	145
Cc1ccccc1Oc1ccc(CN(Cc2cc(F)cc(F)c2)c2c(Br)cc(CC(=O)O)cc2Br)cc1			1280
O=C(O)Cc1cc(Br)c(N(Cc2ccc(Oc3ccccc3Br)cc2)Cc2cc(F)cc(F)c2)c(Br)c1	> 10000	1170	801
O=C(O)Cc1cc(Br)c(N(Cc2ccc(Oc3ccc(Cl)cc3Cl)cc2)Cc2cc(F)cc(F)c2)c(Br)c1	2600	391	96

The next lines start with the values.

IC50 [1] [nM]	IC50 [2] [nM]	IC50 [3] [nM]	SMILES
3900	1050	722	O=C(O)Cc1cc(Br)c(N(Cc2ccc(Oc3ccccc3)cc2)Cc2cc(F)cc(F)c2)c(Br)c1
1880	432	4.6	Cc1c(NS(C)(=O)=O)cccc1N(Cc1ccc(Oc2ccc(F)c(OCC(=O)O)c2)cc1)Cc1cc(F)cc(F)c1
		1640	Cc1ccc(Oc2ccc(CN(Cc3cc(F)cc(F)c3)c3c(Br)cc(CC(=O)O)cc3Br)cc2)c(C)c1
		> 9000	O=C(O)c1ccc(N(Cc2ccccc2)Cc2ccc(Oc3ccccc3)cc2)cc1
3300	598	298	O=C(O)Cc1cc(Br)c(N(Cc2ccc(Oc3ccccc3C(F)(F)F)cc2)Cc2cc(F)cc(F)c2)c(Br)c1
